Test results: patent US20100136541A1, “IDENTIFICATION AND VERIFICATION OF METHYLATION MARKER SEQUENCES” (Siemens Healthcare Diagnostics Inc., priority 2003, published 2010)

Legend:
Assay in all cases: Affymetrix expression profiling of treated and untreated cell lines (restoration of gene expression)
Format in all cases: cell-based, human
[1] = tested on: CA4; conditions: cell line LS174T, treated vs untreated
Description: (§1) Twenty well characterized, microdissected samples of colorectal cancer tissue were obtained from consenting patients. A second set of twenty, microdissected samples of normal adjacent colon tissue were also obtained. Total RNA was extracted from these samples using RNeasy kits (QIAGEN, Valencia, Calif.) according to the manufacturer's instructions. Expression profiling was performed using the GeneChip expression arrays from Affymetrix (Santa Clara, Calif.). Reverse transcription, second-strand synthesis, and probe generation was accomplished by standard Affymetrix protocols. The Human Genome U133A GeneChip, which contains more than 15,000 substantiated human genes, was hybridized, washed, and scanned according to Affymetrix protocols. Changes in cellular mRNA levels in the cancerous tissues were compared with mRNA levels in the normal colon tissues. GeneSpring v4.2 (Silicon Genetics, Redwood City, Calif.) was used to normalize and scale results and compare gene expression levels in the cancer tissue relative to that in the normal tissue.
(§2) Further support for the clinical importance of these sites comes from the changes seen in gene expression of the genes after treatment of cell lines with 5-aza-2′-deoxyctyidine. These values were obtained from Affymetrix expression profiling of treated and untreated cell lines using the procedure described above.

[2] = tested on: GPX3; conditions: cell line LS174T, treated vs untreated
Description: as §1, §2

[3] = tested on: SCNN1B; conditions: cell line LS123, treated vs untreated
Description: as §1, §2

Nc1ncn([C@H]2C[C@H](O)[C@@H](CO)O2)c(=O)n1 [5-aza-2′-deoxycytidine]
restoration of gene expression of CA4 after treatment [1]: 2.8 fold
restoration of gene expression of GPX3 after treatment [2]: 8.5 fold
restoration of gene expression of SCNN1B after treatment [3]: 4.1 fold
